Assay results published in ChEMBL document CHEMBL3352819, “Structure-based optimization and biological evaluation of trisubstituted pyrazole as a core structure of potent ROS1 kinase inhibitors” (Bioorg Med Chem, 2014).
Each block holds one molecule with its values, some of them ahead of it.

Experiments:
[1] = target: Proto-oncogene tyrosine-protein kinase ROS (Homo sapiens, UniProt P08922); assay: Inhibition of ROS1 (unknown origin) assessed as remaining activity
[2] = target: AP2-associated protein kinase 1 (Homo sapiens) (UniProt Q2M2I8); assay: Inhibition of AAK1 (unknown origin) assessed as residual activity at 10 uM relative to control
[3] = target: Atypical kinase COQ8A, mitochondrial (Homo sapiens) (UniProt Q8NI60); assay: Inhibition of ADCK3 (unknown origin) assessed as residual activity at 10 uM relative to control
[4] = target: ALK tyrosine kinase receptor (Homo sapiens) (UniProt Q9UM73); assay: Inhibition of ALK (unknown origin) assessed as residual activity at 20 uM relative to control
[5] = target: Aurora kinase A (Homo sapiens) (UniProt O14965); assay: Inhibition of aurora A kinase (unknown origin) assessed as residual activity at 10 uM relative to control
[6] = target: BMP-2-inducible protein kinase (Homo sapiens) (UniProt Q9NSY1); assay: Inhibition of BIKE (unknown origin) assessed as residual activity at 10 uM relative to control
[7] = target: Tyrosine-protein kinase Blk (Homo sapiens) (UniProt P51451); assay: Inhibition of BLK (unknown origin) assessed as residual activity at 10 uM relative to control
[8] = target: Serine/threonine-protein kinase B-raf (Homo sapiens) (UniProt P15056); assay: Inhibition of BRAF (unknown origin) assessed as residual activity at 10 uM relative to control
[9] = tested on: Serine/threonine-protein kinase B-raf (Homo sapiens), P15056 [V600E]; assay: Inhibition of BRAF V600E mutant (unknown origin) assessed as residual activity at 10 uM relative to control
[10] = target: Ephrin type-B receptor 6 (Homo sapiens) (UniProt O15197); assay: Inhibition of EPHB6 (unknown origin) assessed as residual activity at 10 uM relative to control
[11] = target: Receptor-type tyrosine-protein kinase FLT3 (Homo sapiens) (UniProt P36888); assay: Inhibition of FLT3 (unknown origin) assessed as residual activity at 10 uM relative to control
[12] = tested on: Receptor-type tyrosine-protein kinase FLT3 (Homo sapiens), P36888 [N841I]; assay: Inhibition of FLT3 N841I mutant (unknown origin) assessed as residual activity at 10 uM relative to control
[13] = target: Tyrosine-protein kinase HCK (Homo sapiens) (UniProt P08631); assay: Inhibition of HCK (unknown origin) assessed as residual activity at 10 uM relative to control
[14] = target: Tyrosine-protein kinase JAK2 (Homo sapiens) (UniProt O60674); assay: Inhibition of JAK2 (unknown origin) assessed as residual activity at 10 uM relative to control
[15] = target: Mast/stem cell growth factor receptor Kit (Homo sapiens) (UniProt P10721); assay: Inhibition of KIT (unknown origin) assessed as residual activity at 10 uM relative to control
[16] = target: Leukocyte tyrosine kinase receptor (Homo sapiens) (UniProt P29376); assay: Inhibition of LTK (unknown origin) assessed as residual activity at 10 uM relative to control
[17] = target: Hepatocyte growth factor receptor (Homo sapiens) (UniProt P08581); assay: Inhibition of c-MET (unknown origin) assessed as residual activity at 20 uM relative to control
[18] = target: Phosphatidylinositol 4-phosphate 3-kinase C2 domain-containing subunit beta (Homo sapiens) (UniProt O00750); assay: Inhibition of PIK3C2B (unknown origin) assessed as residual activity at 10 uM relative to control
[19] = target: Phosphatidylinositol 4,5-bisphosphate 3-kinase catalytic subunit alpha isoform (Homo sapiens) (UniProt P42336); assay: Inhibition of PIK3CA (unknown origin) assessed as residual activity at 10 uM relative to control
[20] = tested on: Phosphatidylinositol 4,5-bisphosphate 3-kinase catalytic subunit alpha isoform (Homo sapiens), P42336 [E542K]; assay: Inhibition of PIK3CA E542K mutant (unknown origin) assessed as residual activity at 10 uM relative to control
[21] = target: Phosphatidylinositol 4,5-bisphosphate 3-kinase catalytic subunit beta isoform (Homo sapiens) (UniProt P42338); assay: Inhibition of PIK3CB (unknown origin) assessed as residual activity at 10 uM relative to control
[22] = target: Phosphatidylinositol 4,5-bisphosphate 3-kinase catalytic subunit delta isoform (Homo sapiens) (UniProt O00329); assay: Inhibition of PIK3CD (unknown origin) assessed as residual activity at 10 uM relative to control
[23] = target: Serine/threonine-protein kinase PLK4 (Homo sapiens) (UniProt O00444); assay: Inhibition of PLK4 (unknown origin) assessed as residual activity at 10 uM relative to control
[24] = target: Serine/threonine-protein kinase RIO2 (Homo sapiens) (UniProt Q9BVS4); assay: Inhibition of RIOK2 (unknown origin) assessed as residual activity at 10 uM relative to control
[25] = target: Proto-oncogene tyrosine-protein kinase Src (Homo sapiens) (UniProt P12931); assay: Inhibition of SRC (unknown origin) assessed as residual activity at 10 uM relative to control
[26] = target: Non-receptor tyrosine-protein kinase TNK1 (Homo sapiens) (UniProt Q13470); assay: Inhibition of TNK1 (unknown origin) assessed as residual activity at 10 uM relative to control
[27] = target: Tyrosine-protein kinase TXK (Homo sapiens) (UniProt P42681); assay: Inhibition of TXK (unknown origin) assessed as residual activity at 10 uM relative to control
[28] = target: Non-receptor tyrosine-protein kinase TYK2 (Homo sapiens) (UniProt P29597); assay: Inhibition of TYK2 JH1 domain catalytic (unknown origin) assessed as residual activity at 10 uM relative to control
[29] = organism: Homo sapiens; assay: Inhibition of ULK (unknown origin) assessed as residual activity at 10 uM relative to control
[30] = target: Mitogen-activated protein kinase kinase kinase 20 (Homo sapiens) (UniProt Q9NYL2); assay: Inhibition of ZAK (unknown origin) assessed as residual activity at 10 uM relative to control
Chain of Mitogen-activated protein kinase kinase kinase 20 (Homo sapiens) (Q9NYL2 2-800 limits assumed): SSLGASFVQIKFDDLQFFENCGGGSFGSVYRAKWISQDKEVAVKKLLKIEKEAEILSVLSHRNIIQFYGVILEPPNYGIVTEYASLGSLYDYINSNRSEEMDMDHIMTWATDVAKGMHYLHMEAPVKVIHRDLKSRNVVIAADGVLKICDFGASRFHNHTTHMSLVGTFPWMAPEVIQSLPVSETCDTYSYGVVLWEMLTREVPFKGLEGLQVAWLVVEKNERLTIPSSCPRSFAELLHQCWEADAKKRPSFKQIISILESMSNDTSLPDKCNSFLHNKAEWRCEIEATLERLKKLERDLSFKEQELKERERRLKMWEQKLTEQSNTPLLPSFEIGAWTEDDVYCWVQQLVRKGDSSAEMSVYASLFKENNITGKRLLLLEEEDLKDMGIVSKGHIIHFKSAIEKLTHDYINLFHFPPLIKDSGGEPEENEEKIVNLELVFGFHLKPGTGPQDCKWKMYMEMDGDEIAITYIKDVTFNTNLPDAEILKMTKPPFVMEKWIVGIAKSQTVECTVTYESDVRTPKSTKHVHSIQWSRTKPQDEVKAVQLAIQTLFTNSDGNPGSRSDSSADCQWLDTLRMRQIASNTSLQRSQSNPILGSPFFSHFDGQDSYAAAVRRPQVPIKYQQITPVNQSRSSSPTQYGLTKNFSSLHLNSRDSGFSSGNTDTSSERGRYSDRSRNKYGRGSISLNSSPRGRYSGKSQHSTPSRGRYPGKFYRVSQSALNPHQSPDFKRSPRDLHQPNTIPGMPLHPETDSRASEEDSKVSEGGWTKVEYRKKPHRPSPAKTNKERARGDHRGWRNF

Chain of Proto-oncogene tyrosine-protein kinase ROS (P08922 whole entry): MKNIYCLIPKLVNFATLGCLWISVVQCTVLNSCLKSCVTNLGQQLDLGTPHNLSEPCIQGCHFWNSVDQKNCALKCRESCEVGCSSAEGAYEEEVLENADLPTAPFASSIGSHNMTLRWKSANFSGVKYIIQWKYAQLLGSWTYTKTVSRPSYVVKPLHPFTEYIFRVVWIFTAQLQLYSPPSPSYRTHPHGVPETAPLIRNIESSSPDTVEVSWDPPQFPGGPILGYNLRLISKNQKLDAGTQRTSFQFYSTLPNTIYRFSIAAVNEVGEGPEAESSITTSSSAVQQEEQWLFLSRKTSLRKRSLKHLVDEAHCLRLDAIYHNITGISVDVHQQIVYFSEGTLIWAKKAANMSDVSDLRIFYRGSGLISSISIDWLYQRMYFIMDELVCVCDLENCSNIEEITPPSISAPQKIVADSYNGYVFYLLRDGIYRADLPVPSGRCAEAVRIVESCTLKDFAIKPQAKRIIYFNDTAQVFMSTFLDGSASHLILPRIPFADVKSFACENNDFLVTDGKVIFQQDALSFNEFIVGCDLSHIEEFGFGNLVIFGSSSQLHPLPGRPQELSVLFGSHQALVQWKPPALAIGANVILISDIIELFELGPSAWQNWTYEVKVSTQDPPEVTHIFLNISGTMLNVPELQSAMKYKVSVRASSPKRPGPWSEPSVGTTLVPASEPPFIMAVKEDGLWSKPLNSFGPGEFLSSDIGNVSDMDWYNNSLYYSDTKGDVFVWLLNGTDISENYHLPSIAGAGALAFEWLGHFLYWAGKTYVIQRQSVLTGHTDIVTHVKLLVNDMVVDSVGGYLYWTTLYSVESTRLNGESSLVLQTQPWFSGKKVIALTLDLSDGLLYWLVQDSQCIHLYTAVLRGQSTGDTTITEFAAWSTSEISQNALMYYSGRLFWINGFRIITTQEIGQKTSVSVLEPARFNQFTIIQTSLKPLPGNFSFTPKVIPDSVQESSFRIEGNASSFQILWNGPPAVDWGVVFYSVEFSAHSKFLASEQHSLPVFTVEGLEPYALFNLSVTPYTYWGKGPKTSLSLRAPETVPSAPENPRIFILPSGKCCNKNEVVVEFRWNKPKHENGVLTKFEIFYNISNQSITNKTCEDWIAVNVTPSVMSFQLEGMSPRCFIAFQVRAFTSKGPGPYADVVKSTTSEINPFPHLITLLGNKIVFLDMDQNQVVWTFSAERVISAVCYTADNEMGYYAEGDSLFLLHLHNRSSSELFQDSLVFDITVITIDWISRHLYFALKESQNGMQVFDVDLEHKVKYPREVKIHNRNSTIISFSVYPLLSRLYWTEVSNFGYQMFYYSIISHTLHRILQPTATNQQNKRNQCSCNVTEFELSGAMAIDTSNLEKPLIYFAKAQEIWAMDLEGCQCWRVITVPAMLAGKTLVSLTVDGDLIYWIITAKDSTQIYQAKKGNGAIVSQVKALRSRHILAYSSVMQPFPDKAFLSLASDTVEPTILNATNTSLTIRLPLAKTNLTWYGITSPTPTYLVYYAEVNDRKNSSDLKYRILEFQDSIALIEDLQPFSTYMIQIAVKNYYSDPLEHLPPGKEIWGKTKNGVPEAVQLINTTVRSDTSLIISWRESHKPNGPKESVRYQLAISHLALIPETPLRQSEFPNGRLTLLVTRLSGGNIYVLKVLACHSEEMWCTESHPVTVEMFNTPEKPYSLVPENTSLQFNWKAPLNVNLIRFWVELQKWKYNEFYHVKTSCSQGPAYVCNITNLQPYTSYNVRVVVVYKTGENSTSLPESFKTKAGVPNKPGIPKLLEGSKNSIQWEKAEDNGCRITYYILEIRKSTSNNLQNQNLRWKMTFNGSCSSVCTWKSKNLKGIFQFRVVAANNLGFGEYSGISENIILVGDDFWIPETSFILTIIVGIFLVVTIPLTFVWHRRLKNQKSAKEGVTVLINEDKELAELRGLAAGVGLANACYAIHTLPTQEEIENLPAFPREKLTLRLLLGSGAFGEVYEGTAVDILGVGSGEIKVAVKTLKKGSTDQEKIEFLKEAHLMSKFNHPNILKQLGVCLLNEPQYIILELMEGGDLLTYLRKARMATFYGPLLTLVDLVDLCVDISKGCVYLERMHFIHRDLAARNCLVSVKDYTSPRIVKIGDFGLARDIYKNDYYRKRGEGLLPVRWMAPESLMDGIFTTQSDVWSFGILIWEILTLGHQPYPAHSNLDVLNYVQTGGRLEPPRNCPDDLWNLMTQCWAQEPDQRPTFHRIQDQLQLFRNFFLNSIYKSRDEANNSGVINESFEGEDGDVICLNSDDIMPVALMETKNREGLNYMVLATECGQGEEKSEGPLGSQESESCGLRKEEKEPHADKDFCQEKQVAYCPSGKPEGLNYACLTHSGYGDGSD
Chain of Hepatocyte growth factor receptor (Homo sapiens) (P08581 whole entry, the tested form may be a part): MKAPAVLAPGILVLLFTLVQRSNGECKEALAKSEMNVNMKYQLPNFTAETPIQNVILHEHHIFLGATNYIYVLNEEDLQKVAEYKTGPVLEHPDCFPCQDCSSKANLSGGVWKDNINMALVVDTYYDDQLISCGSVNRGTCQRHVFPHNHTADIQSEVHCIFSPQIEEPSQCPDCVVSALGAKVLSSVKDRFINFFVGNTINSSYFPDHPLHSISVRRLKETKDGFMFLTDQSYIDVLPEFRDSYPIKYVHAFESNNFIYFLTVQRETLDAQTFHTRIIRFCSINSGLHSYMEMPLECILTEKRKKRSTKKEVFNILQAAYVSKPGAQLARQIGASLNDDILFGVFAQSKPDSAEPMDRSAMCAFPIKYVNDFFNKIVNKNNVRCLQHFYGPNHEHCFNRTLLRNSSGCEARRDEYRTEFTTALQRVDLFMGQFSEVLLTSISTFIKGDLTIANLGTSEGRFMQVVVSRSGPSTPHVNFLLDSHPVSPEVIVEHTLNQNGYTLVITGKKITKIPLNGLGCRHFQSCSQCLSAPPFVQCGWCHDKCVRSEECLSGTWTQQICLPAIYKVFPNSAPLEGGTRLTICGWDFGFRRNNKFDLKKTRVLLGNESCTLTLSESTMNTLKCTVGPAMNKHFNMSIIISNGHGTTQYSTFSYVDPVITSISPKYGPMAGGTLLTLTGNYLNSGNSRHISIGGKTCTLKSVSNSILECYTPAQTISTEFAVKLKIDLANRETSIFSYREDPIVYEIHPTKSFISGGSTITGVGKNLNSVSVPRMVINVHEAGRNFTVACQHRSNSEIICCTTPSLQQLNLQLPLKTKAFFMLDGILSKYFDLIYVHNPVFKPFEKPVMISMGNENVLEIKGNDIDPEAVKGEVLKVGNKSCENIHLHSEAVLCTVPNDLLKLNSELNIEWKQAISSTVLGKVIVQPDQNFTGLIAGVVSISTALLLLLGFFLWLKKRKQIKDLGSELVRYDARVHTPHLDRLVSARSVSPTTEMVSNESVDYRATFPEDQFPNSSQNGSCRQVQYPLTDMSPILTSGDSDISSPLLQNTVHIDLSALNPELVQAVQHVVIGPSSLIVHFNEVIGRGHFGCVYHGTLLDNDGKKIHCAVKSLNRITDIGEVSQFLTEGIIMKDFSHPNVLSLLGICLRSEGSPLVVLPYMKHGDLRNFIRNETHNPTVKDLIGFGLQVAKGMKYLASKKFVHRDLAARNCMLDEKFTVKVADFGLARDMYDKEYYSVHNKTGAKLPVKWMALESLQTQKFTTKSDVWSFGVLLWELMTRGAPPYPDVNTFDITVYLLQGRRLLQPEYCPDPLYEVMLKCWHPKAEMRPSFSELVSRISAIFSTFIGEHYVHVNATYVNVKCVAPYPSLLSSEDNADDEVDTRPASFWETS
Chain of Aurora kinase A (Homo sapiens) (O14965 whole entry): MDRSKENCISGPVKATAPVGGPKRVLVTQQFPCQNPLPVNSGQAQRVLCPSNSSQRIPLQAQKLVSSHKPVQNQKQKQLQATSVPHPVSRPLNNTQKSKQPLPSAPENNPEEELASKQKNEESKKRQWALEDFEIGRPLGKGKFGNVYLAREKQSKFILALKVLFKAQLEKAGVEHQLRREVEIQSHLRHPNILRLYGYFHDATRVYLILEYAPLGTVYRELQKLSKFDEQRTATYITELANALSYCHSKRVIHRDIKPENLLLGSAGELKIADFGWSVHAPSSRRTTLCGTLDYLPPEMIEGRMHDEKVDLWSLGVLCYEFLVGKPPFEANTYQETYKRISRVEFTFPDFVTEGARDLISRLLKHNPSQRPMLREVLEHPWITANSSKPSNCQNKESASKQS

- IC50 [1]: 13.6 nM
- Activity [2]: 18%
- Activity [3]: 15%
- Activity [4]: 31%
- Activity [5]: 31%
- Activity [6]: 11%
- Activity [7]: 20%
- Activity [8]: 30%
- Activity [9]: 18%
- Activity [10]: 4.2%
- Activity [11]: 3%
- Activity [12]: 3.3%
- Activity [13]: 28%
- Activity [14]: 3%
- Activity [15]: 20%
- Activity [16]: 17%
- Activity [17]: 51%
- Activity [18]: 4%
- Activity [19]: 13%
- Activity [20]: 14%
- Activity [21]: 7.2%
- Activity [22]: 4.4%
- Activity [23]: 6.8%
- Activity [24]: 10%
- Activity [25]: 25%
- Activity [26]: 9.2%
- Activity [27]: 9.6%
- Activity [28]: 2.6%
- Activity [29]: 71%
- Activity [30]: 92%
Structure (SMILES): Cc1cc(O)cc(-c2nn(C)cc2-c2cc(N3CCOCC3)nc(-c3cccnc3)n2)c1

- IC50 [1]: 91.5 nM
Structure (SMILES): Cc1cc(O)cc(-c2c(-c3cc(N4CCOCC4)nc(-c4cccnc4)n3)cnn2C)c1

- IC50 [1]: 138 nM
Structure (SMILES): COc1cc(C)cc(-c2c(-c3cc(NCCCCO)nc(-c4cccnc4)n3)cnn2C)c1

- IC50 [1]: 139 nM
Structure (SMILES): Cc1cc(O)cc(-c2c(-c3cc(NC[C@H](C)O)nc(-c4cccnc4)n3)cnn2C)c1

- IC50 [1]: 108 nM
Structure (SMILES): COc1cc(C)cc(-c2nn(C)cc2-c2cc(N3CC(O)C3)nc(-c3cccnc3)n2)c1

- IC50 [1]: 56.6 nM
Structure (SMILES): Cc1cc(O)cc(-c2c(-c3cc(N4CC(O)C4)nc(-c4cccnc4)n3)cnn2C)c1

- IC50 [1]: 25.4 nM
Structure (SMILES): Cc1cc(O)cc(-c2c(-c3cc(NCCCCO)nc(-c4cccnc4)n3)cnn2C)c1

Continued, molecule first:

Structure (SMILES): COc1cc(C)cc(-c2nn(C)cc2-c2cc(N3CCOCC3)nc(-c3cccnc3)n2)c1
- IC50 [1]: 59.1 nM

Structure (SMILES): COc1cc(C)cc(-c2c(-c3cc(N4CC(O)C4)nc(-c4cccnc4)n3)cnn2C)c1
- IC50 [1]: 74.2 nM

Structure (SMILES): Cc1cc(O)cc(-c2nn(C)cc2-c2cc(N3CC(O)C3)nc(-c3cccnc3)n2)c1
- IC50 [1]: 86.5 nM

Structure (SMILES): COc1cc(C)cc(-c2c(-c3cc(N4CCOCC4)nc(-c4cccnc4)n3)cnn2C)c1
- IC50 [1]: 104 nM

Structure (SMILES): COc1cc(C)cc(-c2c(-c3cc(NC[C@H](C)O)nc(-c4cccnc4)n3)cnn2C)c1
- IC50 [1]: 283 nM

Structure (SMILES): COc1cc(C)cc(-c2nn(C)cc2-c2cc(NCCCCO)nc(-c3cccnc3)n2)c1
- IC50 [1]: 63.8 nM

Structure (SMILES): Cc1cc(O)cc(-c2nn(C)cc2-c2cc(NCCCCO)nc(-c3cccnc3)n2)c1
- IC50 [1]: 133 nM

Structure (SMILES): COc1cc(C)cc(-c2nn(C)cc2-c2cc(NC[C@H](C)O)nc(-c3cccnc3)n2)c1
- IC50 [1]: 241 nM

Structure (SMILES): Cc1cc(O)cc(-c2nn(C)cc2-c2cc(NC[C@H](C)O)nc(-c3cccnc3)n2)c1
- IC50 [1]: 105 nM
